Assay results from PubChem BioAssay (NCI).
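48-hour exposure; five concentrations; linearly interpolated endpoints. GI50 marks 50% less growth. TGI is the concentration that stops growth completely.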

Legend:
Assay in all cases: NCI tumour cell line growth inhibition, 48 h
OVCAR-3 ovarian = system: OVCAR-3 ovarian
K-562 leukemia = system: K-562 leukemia
HCC-2998 colon = system: HCC-2998 colon
HOP-92 NSCLC = system: HOP-92 NSCLC
CCRF-CEM leukemia = system: CCRF-CEM leukemia
IGROV1 ovarian = system: IGROV1 ovarian
OVCAR-8 ovarian = system: OVCAR-8 ovarian
TK-10 renal = system: TK-10 renal
ACHN renal = system: ACHN renal
OVCAR-5 ovarian = system: OVCAR-5 ovarian
A549 NSCLC = system: A549 NSCLC
MCF7 breast = system: MCF7 breast

Question: Which TGI (OVCAR-3 ovarian) does the source give for `Cc1cc(C)c(NC(=O)/C=C/c2ccccc2)c(C)c1` here?
Answer: Its TGI is > 100 µM.

Question: And the TGI (K-562 leukemia)?
Answer: The TGI was > 100 µM.

Question: And the TGI (HCC-2998 colon)?
Answer: The TGI was > 100 µM.

Question: And the TGI (HOP-92 NSCLC)?
Answer: Its TGI is > 100 µM.

Question: And the TGI (CCRF-CEM leukemia)?
Answer: The TGI was > 100 µM.

Question: And the TGI (IGROV1 ovarian)?
Answer: The TGI was > 100 µM.

Question: What about the TGI (OVCAR-8 ovarian) of the same compound?
Answer: The TGI was > 100 µM.

Question: What about the TGI (TK-10 renal) of the same compound?
Answer: Its TGI is > 100 µM.

Question: And the TGI (ACHN renal)?
Answer: The TGI was > 100 µM.

Question: What about the TGI (OVCAR-5 ovarian) of the same compound?
Answer: Its TGI is > 100 µM.

Question: And the TGI (A549 NSCLC)?
Answer: Its TGI is > 100 µM.

Question: And the TGI (MCF7 breast)?
Answer: The TGI was > 100 µM.

Question: What does the source list for `O=C1/C(=C/c2ccc(Cl)cc2)N=C(c2ccccc2)N1/N=C/c1ccccc1O`?
Answer: TGI (OVCAR-3 ovarian): 36.3 µM; TGI (K-562 leukemia): 31 µM; TGI (HOP-92 NSCLC): 32.9 µM; TGI (CCRF-CEM leukemia): 7.73 µM; TGI (IGROV1 ovarian): 26.4 µM; TGI (OVCAR-8 ovarian): 34.6 µM; TGI (TK-10 renal): 12.6 µM; TGI (ACHN renal): 21.2 µM; TGI (OVCAR-5 ovarian): 34.8 µM; TGI (A549 NSCLC): 81.6 µM; TGI (MCF7 breast): > 100 µM

Question: Which results are given for `CCP(=O)(CC)C(Cl)(Cl)C(O)C(Cl)(Cl)Cl` (stereo unspecified)?
Answer: TGI (OVCAR-3 ovarian): > 100 µM; TGI (K-562 leukemia): > 100 µM; TGI (HCC-2998 colon): > 100 µM; TGI (HOP-92 NSCLC): > 100 µM; TGI (CCRF-CEM leukemia): > 100 µM; TGI (IGROV1 ovarian): > 100 µM; TGI (OVCAR-8 ovarian): > 100 µM; TGI (TK-10 renal): > 100 µM; TGI (ACHN renal): > 100 µM; TGI (OVCAR-5 ovarian): > 100 µM; TGI (A549 NSCLC): > 100 µM; TGI (MCF7 breast): > 100 µM

Question: What does the source list for `CN1C(=O)CN2C(Cl)(Cl)C2(c2ccccc2)c2cc(Cl)ccc21` (stereo unspecified)?
Answer: TGI (OVCAR-3 ovarian): > 100 µM; TGI (K-562 leukemia): > 100 µM; TGI (HCC-2998 colon): > 100 µM; TGI (HOP-92 NSCLC): 88.2 µM; TGI (CCRF-CEM leukemia): > 100 µM; TGI (IGROV1 ovarian): > 100 µM; TGI (OVCAR-8 ovarian): > 100 µM; TGI (TK-10 renal): > 100 µM; TGI (ACHN renal): > 100 µM; TGI (OVCAR-5 ovarian): > 100 µM

Question: For `NCCCn1c2c(c3ccc([N+](=O)[O-])cc3c1=O)C(=O)c1cc(F)ccc1-2`, which GI50 (OVCAR-3 ovarian) is on record?
Answer: The GI50 was 0.031 µM.

Question: And the TGI (OVCAR-3 ovarian)?
Answer: The TGI was 0.152 µM.

Question: What about the GI50 (K-562 leukemia) of the same compound?
Answer: The GI50 was < 0.0205 µM.

Question: What about the TGI (K-562 leukemia) of the same compound?
Answer: The TGI was 0.331 µM.

Question: What about the GI50 (HCC-2998 colon) of the same compound?
Answer: Its GI50 is 0.0367 µM.

Question: And the TGI (HCC-2998 colon)?
Answer: Its TGI is 0.233 µM.

Question: And the GI50 (HOP-92 NSCLC)?
Answer: Its GI50 is 0.0902 µM.

Question: And the TGI (HOP-92 NSCLC)?
Answer: Its TGI is 0.845 µM.

Question: What about the GI50 (CCRF-CEM leukemia) of the same compound?
Answer: The GI50 was < 0.0144 µM.

Question: And the TGI (CCRF-CEM leukemia)?
Answer: Its TGI is 0.779 µM.

Question: And the GI50 (TK-10 renal)?
Answer: Its GI50 is 0.372 µM.

Question: What about the TGI (TK-10 renal) of the same compound?
Answer: The TGI was 2.7 µM.

Question: And the GI50 (ACHN renal)?
Answer: Its GI50 is 0.0241 µM.

Question: And the TGI (ACHN renal)?
Answer: Its TGI is 0.142 µM.

Question: And the GI50 (OVCAR-5 ovarian)?
Answer: Its GI50 is 0.122 µM.

Question: What about the TGI (OVCAR-5 ovarian) of the same compound?
Answer: Its TGI is 0.71 µM.
